Several values for one entry are separate records, joined by “and”; a condition that tells them apart may be missing. Equal entries are not always repeated. Where two headings read alike, the source gives them in different places.
Key:
CCRF-CEM cells = assay: cell viability, CTG assay, CCRF-CEM; details: Homo sapiens
Method: Data are the mean ± stdev of 3 biological replicates. c Viability of healthy T-cells measured by propidium iodide (PI) exclusion. Data are the mean ± stdev of 8 biological replicates for 1–16 µM AVX420, 5 for 32 µM AVX420 and 2 for 0.5 µM Staurosporine (Stau). d Cell viability measured by CTG assay in cells preincubated with 2.5 mM glutathione (GSH) or 2.5 mM N-acetyl cysteine (NAC) for 30 min before addition of 0.5 or 1 µM AVX420, 0.06 µM RSL-3, or 0.06 µM ML-210 for 24 h. Data are the mean ± stdev of 3 biological replicates. P-values were determined by one-way ANOVA with Dunnett’s correction for multiple testing and **** indicates P < 0.0001. e Cell viability measured by CTG assay. CCRF-CEM or Jurkat cells were co-treated with 0.5 µM AVX420 and either arachidonic acid (AA) at concentrations ranging from 1 to 100 µM or a mixture of 9 eicosanoids: 6-keto prostaglandin F1α, Thromboxane B2, prostaglandin F2α, prostaglandin E2, prostaglandin D2, 12(S)-HHTrE, 15(S)-HETE,12(S)-HETE, 5(S)-HETE at a final concentration of 2 ng/mL each (EIC-mix) for 24 h. Data are the mean ± stdev of 3 biological replicates. P-values were determined by two-way ANOVA with Sidak’s correction for multiple comparisons. f Proportion of intracellular ROS-positive cells measured by ROS-red staining and flow cytometry. Cells were treated with indicated concentrations of AVX420 (µM), 1 mM H2O2, 1 µM RSL-3, or 1 µM doxorubicin (dox) for 4 h. Data are the mean ± stdev of 3 biological replicates. g Intracellular ROS measurements in CCRF-CEM cells treated with AVX420 (0.5 µM), AVX002 (8 µM), or AACOCF3 (8 µM) for 4 h.
All cell lines were confirmed to be free of mycoplasma contamination. The cell lines were not authenticated. MV-4-11 were cultured in Iscove’s Modified Dulbecco’s Medium (Sigma, I3390). CCRF-CEM, Jurkat E6.1, and HL-60 cells were cultured in RPMI 1640 Medium RPMI-1640 medium (Sigma, R5886).

Jurkat E6.1 cells = assay: cell viability, CTG assay, Jurkat E6.1; type: cell-based, human; details: for viability at 0.125 µM: Jurkat E6.1, 0.125 µM; for cell viability (0 µM = 100): listed as AVX420; for cell viability (Control = 100): Jurkat cells
From the text: Data are the mean ± stdev of 3 biological replicates. […] Data are the mean ± stdev of 3 biological replicates.
Bjørn Tore Gjertsen (University of Bergen, Norway). […] The cell lines were not authenticated.

CCCCCCCOc1ccc(OCC(=O)c2nc(C(=O)OC)cs2)cc1 [GK420]
viability at 1 µM (CCRF-CEM cells; 72 h, read-out: cell viability (0 µM = 100), CCRF-CEM, 1 µM, 72H): 3.38% | viability at 2 µM (CCRF-CEM cells; 72 h, read-out: cell viability (0 µM = 100), CCRF-CEM, 2 µM, 72H): 1% | viability at 4 µM (CCRF-CEM cells; 72 h, read-out: cell viability (0 µM = 100), CCRF-CEM, 4 µM, 72H): 0.214% | viability at 0.5 µM (CCRF-CEM cells; read-out: cell viability (Control = 100), CCRF-CEM, 0.5 µM, VEH): 52% | viability at 1 µM (CCRF-CEM cells; read-out: cell viability (Control = 100), CCRF-CEM, 1 µM, VEH): 37% | viability at 0.007 µM (Jurkat E6.1 cells; Homo sapiens, Jurkat E6.1, 24 h, Jurkat E6.1, 0.007 µM, 24H, read-out: cell viability (0 µM = 100)): 102% | viability at 0.015 µM (Jurkat E6.1 cells; Homo sapiens, Jurkat E6.1, 24 h, Jurkat E6.1, 0.015 µM, 24H, read-out: cell viability (0 µM = 100)): 96% | viability at 0.031 µM (Jurkat E6.1 cells; Homo sapiens, Jurkat E6.1, 24 h, Jurkat E6.1, 0.031 µM, 24H, read-out: cell viability (0 µM = 100)): 99% | viability at 0.062 µM (Jurkat E6.1 cells; Homo sapiens, Jurkat E6.1, 24 h, Jurkat E6.1, 0.062 µM, 24H, read-out: cell viability (0 µM = 100)): 103% | viability at 0.125 µM (Jurkat E6.1 cells; Homo sapiens, Jurkat E6.1, 24 h, 24H, read-out: cell viability (0 µM = 100)): 101% | viability at 0.25 µM (Jurkat E6.1 cells; Homo sapiens, Jurkat E6.1, 24 h, Jurkat E6.1, 0.25 µM, 24H, read-out: cell viability (0 µM = 100)): 90% | viability at 0.5 µM (Jurkat E6.1 cells; Homo sapiens, Jurkat E6.1, 24 h, Jurkat E6.1, 0.5 µM, 24H, read-out: cell viability (0 µM = 100)): 51% | viability at 1 µM (Jurkat E6.1 cells; Homo sapiens, Jurkat E6.1, 24 h, Jurkat E6.1, 1 µM, 24H, read-out: cell viability (0 µM = 100)): 28% | viability at 2 µM (Jurkat E6.1 cells; Homo sapiens, Jurkat E6.1, 24 h, Jurkat E6.1, 2 µM, 24H, read-out: cell viability (0 µM = 100)): 16% | viability at 0.007 µM (Jurkat E6.1 cells; Homo sapiens, Jurkat E6.1, 48 h, Jurkat E6.1, 0.007 µM, 48H, read-out: cell viability (0 µM = 100)): 101% | viability at 0.015 µM (Jurkat E6.1 cells; Homo sapiens, Jurkat E6.1, 48 h, Jurkat E6.1, 0.015 µM, 48H, read-out: cell viability (0 µM = 100)): 99% | viability at 0.031 µM (Jurkat E6.1 cells; Homo sapiens, Jurkat E6.1, 48 h, Jurkat E6.1, 0.031 µM, 48H, read-out: cell viability (0 µM = 100)): 100% | viability at 0.062 µM (Jurkat E6.1 cells; Homo sapiens, Jurkat E6.1, 48 h, Jurkat E6.1, 0.062 µM, 48H, read-out: cell viability (0 µM = 100)): 104% | viability at 0.125 µM (Jurkat E6.1 cells; Homo sapiens, Jurkat E6.1, 48 h, 48H, read-out: cell viability (0 µM = 100)): 104% | viability at 0.25 µM (Jurkat E6.1 cells; Homo sapiens, Jurkat E6.1, 48 h, Jurkat E6.1, 0.25 µM, 48H, read-out: cell viability (0 µM = 100)): 79% | viability at 0.5 µM (Jurkat E6.1 cells; Homo sapiens, Jurkat E6.1, 48 h, Jurkat E6.1, 0.5 µM, 48H, read-out: cell viability (0 µM = 100)): 39% | viability at 1 µM (Jurkat E6.1 cells; Homo sapiens, Jurkat E6.1, 48 h, Jurkat E6.1, 1 µM, 48H, read-out: cell viability (0 µM = 100)): 16% | viability at 2 µM (Jurkat E6.1 cells; Homo sapiens, Jurkat E6.1, 48 h, Jurkat E6.1, 2 µM, 48H, read-out: cell viability (0 µM = 100)): 9% | viability at 4 µM (Jurkat E6.1 cells; Homo sapiens, Jurkat E6.1, 48 h, Jurkat E6.1, 4 µM, 48H, read-out: cell viability (0 µM = 100)): 5% | viability at 0.007 µM (Jurkat E6.1 cells; Homo sapiens, Jurkat E6.1, 72 h, Jurkat E6.1, 0.007 µM, 72H, read-out: cell viability (0 µM = 100)): 100% | viability at 0.015 µM (Jurkat E6.1 cells; Homo sapiens, Jurkat E6.1, 72 h, Jurkat E6.1, 0.015 µM, 72H, read-out: cell viability (0 µM = 100)): 97% | viability at 0.031 µM (Jurkat E6.1 cells; Homo sapiens, Jurkat E6.1, 72 h, Jurkat E6.1, 0.031 µM, 72H, read-out: cell viability (0 µM = 100)): 90% | viability at 0.062 µM (Jurkat E6.1 cells; Homo sapiens, Jurkat E6.1, 72 h, Jurkat E6.1, 0.062 µM, 72H, read-out: cell viability (0 µM = 100)): 87% | viability at 0.125 µM (Jurkat E6.1 cells; Homo sapiens, Jurkat E6.1, 72 h, 72H, read-out: cell viability (0 µM = 100)): 87% | viability at 0.25 µM (Jurkat E6.1 cells; Homo sapiens, Jurkat E6.1, 72 h, Jurkat E6.1, 0.25 µM, 72H, read-out: cell viability (0 µM = 100)): 76% | viability at 0.5 µM (Jurkat E6.1 cells; Homo sapiens, Jurkat E6.1, 72 h, Jurkat E6.1, 0.5 µM, 72H, read-out: cell viability (0 µM = 100)): 31% | viability at 1 µM (Jurkat E6.1 cells; Homo sapiens, Jurkat E6.1, 72 h, Jurkat E6.1, 1 µM, 72H, read-out: cell viability (0 µM = 100)): 10% | viability at 0.5 µM (Jurkat E6.1 cells; Homo sapiens, Jurkat E6.1, Jurkat cells, 0.5 µM, VEH, read-out: cell viability (Control = 100)): 50% | viability at 1 µM (Jurkat E6.1 cells; Homo sapiens, Jurkat E6.1, Jurkat cells, 1 µM, VEH, read-out: cell viability (Control = 100)): 34% | cell viability (0 µM = 100) (Jurkat E6.1 cells; Jurkat E6.1, 0.007 µM, 24H): 98 and 97 | cell viability (0 µM = 100) (Jurkat E6.1 cells; Jurkat E6.1, 0.007 µM, 48H): 98 and 97 | cell viability (0 µM = 100) (Jurkat E6.1 cells; Jurkat E6.1, 0.007 µM, 72H): 98 | cell viability (0 µM = 100) (Jurkat E6.1 cells; Jurkat E6.1, 0.015 µM, 48H): 98 and 97 | cell viability (0 µM = 100) (Jurkat E6.1 cells; Jurkat E6.1, 0.031 µM, 24H): 95 | cell viability (0 µM = 100) (Jurkat E6.1 cells; Jurkat E6.1, 0.031 µM, 48H): 98 | cell viability (0 µM = 100) (Jurkat E6.1 cells; Jurkat E6.1, 0.031 µM, 72H): 95 | cell viability (0 µM = 100) (Jurkat E6.1 cells; Jurkat E6.1, 0.062 µM, 24H): 94 | cell viability (0 µM = 100) (Jurkat E6.1 cells; Jurkat E6.1, 0.062 µM, 48H): 93 | cell viability (0 µM = 100) (Jurkat E6.1 cells; Jurkat E6.1, 0.062 µM, 72H): 98 | cell viability (0 µM = 100) (Jurkat E6.1 cells; Jurkat E6.1, 0.25 µM, 72H): 61 | cell viability (0 µM = 100) (Jurkat E6.1 cells; Jurkat E6.1, 0.5 µM, 24H): 41 and 43 | cell viability (0 µM = 100) (Jurkat E6.1 cells; Jurkat E6.1, 0.5 µM, 72H): 30 and 21 | cell viability (0 µM = 100) (Jurkat E6.1 cells; Jurkat E6.1, 1 µM, 24H): 19 and 21 | cell viability (0 µM = 100) (Jurkat E6.1 cells; Jurkat E6.1, 1 µM, 48H): 14 and 13 | cell viability (0 µM = 100) (Jurkat E6.1 cells; Jurkat E6.1, 1 µM, 72H): 8 | cell viability (0 µM = 100) (Jurkat E6.1 cells; Jurkat E6.1, 2 µM, 48H): 7 | cell viability (0 µM = 100) (Jurkat E6.1 cells; Jurkat E6.1, 4 µM, 48H): 3 | effect on viability (Jurkat E6.1 cells; Jurkat E6.1, CTG): strong dose-dependent effect | cell viability (Control = 100) (Jurkat E6.1 cells; 0.5 µM, VEH, listed as AVX420, 0.5 µM): 46 and 55 | cell viability (Control = 100) (Jurkat E6.1 cells; 1 µM, VEH, listed as AVX420, 1 µM): 21

From article PMC11696576, “Next generation thiazolyl ketone inhibitors of cytosolic phospholipase A2 α for targeted cancer therapy” (Nature Communications, 2025)
